Measurements published in patent publication US6670373B1, “Compounds and method for inhibiting MRP1” (Eli Lilly and Company, priority 1999, dated 2003).

Assays:
[1] = molecular target: T1, MRP1 (Homo sapiens, UniProt P33527); assay: Reversal of MRP1-mediated doxorubicin resistance in HL60/Adr cells (alamarBlue cell growth); type: cell-based; conditions: oncolytic alone at the tested concentration
T1 construct: HL60/Adr and HL60/Vinc are continuous cell lines, which were selected for doxorubicin and vincristine resistance respectively; endogenous in cells; host or cells: HL60/Adr (doxorubicin-selected variant of human HL60)
Method: (§1) The biological activity of the compounds of the present invention was evaluated employing an initial screening assay which rapidly and accurately measured the activity of the tested compound in inhibiting MRP1 or MDR1. Assays useful for evaluating this reversing capability are well known in the art. See, e.g., T. McGrath, et al., Biochemical Pharmacology, 38:3611, 1989; D. Marquardt and M. S. Center, Cancer Research, 52:3157, 1992; D. Marquardt, et al., Cancer Research, 50:1426, 1990; and Cole, et. al., Cancer Research, 54: 5902-5910, 1994.
(§2) Assay for Reversal of MRP1-Mediated Doxorubicin Resistance and MDR1-Mediated Vincristine Resistance: HL60/Adr and HL60/Vinc are continuous cell lines, which were selected for doxorubicin and vincristine resistance respectively by culturing HL60, a human acute myeloblastic leukemia cell line, in increasing concentrations of doxorubicin or vincristine until a highly resistant variant was attained.
(§3) HL60/Adr and HL60/Vinc cells were grown in RPMI 1640 (Gibco) containing 10% fetal bovine serum (FBS) and 50 μg/ml GENTAMICIN™ (Sigma). Cells were harvested; washed twice with assay medium (same as culture media); counted; and diluted to 1×10^5 cells/ml in assay medium. One hundred microliters of cells were aliquoted into wells of a 96 well tissue culture plate. […]

[2] = molecular target: T2, MDR1 (Homo sapiens, UniProt P08183); assay: Reversal of MDR1-mediated vincristine resistance in HL60/Vinc cells (alamarBlue cell growth); type: cell-based; conditions: oncolytic alone at the tested concentration
T2 construct: HL60/Adr and HL60/Vinc are continuous cell lines, which were selected for doxorubicin and vincristine resistance respectively; endogenous in cells; host or cells: HL60/Vinc (vincristine-selected variant of human HL60)
Method: as §1, §2, §3

T2 sequence (P08183 whole entry): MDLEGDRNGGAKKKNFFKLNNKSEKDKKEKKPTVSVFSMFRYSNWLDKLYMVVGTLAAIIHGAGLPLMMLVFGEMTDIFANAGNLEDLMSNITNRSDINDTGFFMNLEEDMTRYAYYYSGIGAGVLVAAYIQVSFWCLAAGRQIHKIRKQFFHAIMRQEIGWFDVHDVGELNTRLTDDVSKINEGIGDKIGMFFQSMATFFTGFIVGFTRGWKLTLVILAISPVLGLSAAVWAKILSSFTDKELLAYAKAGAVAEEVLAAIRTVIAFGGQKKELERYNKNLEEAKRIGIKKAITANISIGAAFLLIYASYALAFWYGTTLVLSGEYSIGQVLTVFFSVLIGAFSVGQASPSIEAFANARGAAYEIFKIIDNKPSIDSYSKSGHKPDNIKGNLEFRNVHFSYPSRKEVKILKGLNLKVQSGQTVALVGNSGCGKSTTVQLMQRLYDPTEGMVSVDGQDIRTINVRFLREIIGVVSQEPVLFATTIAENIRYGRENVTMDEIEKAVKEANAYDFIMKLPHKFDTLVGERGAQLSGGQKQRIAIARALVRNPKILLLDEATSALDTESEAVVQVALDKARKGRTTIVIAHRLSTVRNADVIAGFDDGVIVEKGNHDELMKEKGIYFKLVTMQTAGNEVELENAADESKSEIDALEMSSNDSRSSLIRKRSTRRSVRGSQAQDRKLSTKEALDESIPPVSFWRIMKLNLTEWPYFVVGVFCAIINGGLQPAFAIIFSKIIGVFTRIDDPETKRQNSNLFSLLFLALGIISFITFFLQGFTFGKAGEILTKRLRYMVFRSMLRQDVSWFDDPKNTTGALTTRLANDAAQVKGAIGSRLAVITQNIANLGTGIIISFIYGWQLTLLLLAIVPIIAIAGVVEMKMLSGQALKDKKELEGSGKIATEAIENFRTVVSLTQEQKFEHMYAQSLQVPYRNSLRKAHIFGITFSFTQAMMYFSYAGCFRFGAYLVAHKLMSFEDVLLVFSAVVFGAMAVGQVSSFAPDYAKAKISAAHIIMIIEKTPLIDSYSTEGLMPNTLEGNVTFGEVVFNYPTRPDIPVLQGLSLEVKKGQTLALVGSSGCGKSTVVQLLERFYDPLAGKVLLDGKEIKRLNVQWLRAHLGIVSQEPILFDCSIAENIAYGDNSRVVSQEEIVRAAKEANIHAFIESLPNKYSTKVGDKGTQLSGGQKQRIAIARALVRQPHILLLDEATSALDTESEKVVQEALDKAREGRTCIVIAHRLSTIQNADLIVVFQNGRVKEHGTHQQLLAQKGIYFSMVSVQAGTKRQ
T1 sequence (P33527 whole entry): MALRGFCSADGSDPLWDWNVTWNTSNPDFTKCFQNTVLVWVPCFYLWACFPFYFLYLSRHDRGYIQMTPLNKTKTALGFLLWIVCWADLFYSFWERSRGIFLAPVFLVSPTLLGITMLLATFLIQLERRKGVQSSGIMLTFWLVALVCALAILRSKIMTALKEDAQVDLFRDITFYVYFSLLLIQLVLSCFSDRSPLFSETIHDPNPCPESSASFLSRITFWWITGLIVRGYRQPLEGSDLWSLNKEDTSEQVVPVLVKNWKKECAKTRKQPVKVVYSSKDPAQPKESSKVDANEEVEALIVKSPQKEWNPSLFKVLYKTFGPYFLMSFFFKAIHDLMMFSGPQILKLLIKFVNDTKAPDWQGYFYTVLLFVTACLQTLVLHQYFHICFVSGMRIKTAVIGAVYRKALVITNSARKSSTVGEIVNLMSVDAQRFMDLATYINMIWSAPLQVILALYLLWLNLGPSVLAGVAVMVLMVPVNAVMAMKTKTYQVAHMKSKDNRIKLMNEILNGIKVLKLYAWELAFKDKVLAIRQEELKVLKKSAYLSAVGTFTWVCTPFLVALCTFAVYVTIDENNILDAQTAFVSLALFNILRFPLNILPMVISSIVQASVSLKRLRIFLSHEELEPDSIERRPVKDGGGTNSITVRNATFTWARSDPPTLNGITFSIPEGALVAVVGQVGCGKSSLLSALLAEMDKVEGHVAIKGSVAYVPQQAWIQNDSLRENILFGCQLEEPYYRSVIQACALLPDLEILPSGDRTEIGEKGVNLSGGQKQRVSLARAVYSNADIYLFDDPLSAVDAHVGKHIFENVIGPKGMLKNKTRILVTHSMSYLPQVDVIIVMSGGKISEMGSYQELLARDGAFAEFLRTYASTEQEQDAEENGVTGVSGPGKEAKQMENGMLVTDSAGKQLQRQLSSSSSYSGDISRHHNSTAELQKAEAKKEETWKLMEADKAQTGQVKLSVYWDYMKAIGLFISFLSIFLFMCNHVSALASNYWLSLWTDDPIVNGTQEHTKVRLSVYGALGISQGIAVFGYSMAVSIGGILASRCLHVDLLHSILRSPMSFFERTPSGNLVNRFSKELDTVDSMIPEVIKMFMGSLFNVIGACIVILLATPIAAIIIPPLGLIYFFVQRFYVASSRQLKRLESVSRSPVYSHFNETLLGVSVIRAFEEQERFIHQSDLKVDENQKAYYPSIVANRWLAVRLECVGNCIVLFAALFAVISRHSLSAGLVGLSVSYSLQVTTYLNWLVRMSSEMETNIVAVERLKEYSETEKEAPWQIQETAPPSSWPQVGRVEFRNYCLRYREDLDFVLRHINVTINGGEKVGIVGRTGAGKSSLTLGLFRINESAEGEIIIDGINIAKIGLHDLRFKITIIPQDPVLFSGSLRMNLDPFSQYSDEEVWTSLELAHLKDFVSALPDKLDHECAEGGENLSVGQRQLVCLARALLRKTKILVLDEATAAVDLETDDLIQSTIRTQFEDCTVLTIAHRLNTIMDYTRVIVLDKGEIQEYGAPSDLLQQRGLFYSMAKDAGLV

With `COc1cccc2c1C(=O)c1c(O)c3c(c(O)c1C2=O)C[C@@](O)(C(=O)CO)C[C@@H]3O[C@H]1C[C@H](N)[C@H](O)[C@H](C)O1` [doxorubicin] the “inhibition of cell growth by the oncolytic alone” value [1] was “minimally inhibits” and the “inhibition of cell growth by the oncolytic alone” value [2] was “minimally inhibits”.
